Data on 6 compounds can be found in US7132449B2, “Inhibitors of cruzipain and other cysteine proteases” (Amura Therapeutics Limited, priority 2001, dated 2006).

Bounds are passed on as bounds.

One assay concerns the target T1, Human Cathepsin L (Homo sapiens, UniProt P07711).
T1 construct: purchased CN Biosciences
Briefly: Cathepsin peptidase activity assay, human cathepsin L (Ki). It counts as biochemical. As to conditions: pH 6.5, 25±1° C. The procedure: (§1) Assay protocols were based on literature precedent (Table 1; Barrett, A. J., Rawlings, N. D. and Woessner, J. F., 1998, Handbook of Proteolytic Enzymes, Academic Press, London and references therein) and modified as required to suit local assay protocols. Enzyme was added as required to initiate the reaction and the activity, as judged by the change in fluorescence upon conversion of substrate to product, was monitored over time. All assays were carried out at 25±1° C.
(§2) Bovine cathepsin S, human cathepsin L, human cathepsin H and human cathepsin B were obtained from CN Biosciences. Recombinant human cathepsin S, human cathepsin K and human cathepsin X were obtained from Dr. Boris Turk (Josef Stefan Institute, Ljubljana, Slovenia). Unless otherwise stated, all peptidase activity assays were carried out in 10 mM bis-tris-propane (BTP), pH 6.5 containing 1 mM EDTA, 5 mM 2-mercaptoethanol and 1 mM CaCl2. Human cathepsin H activity assays were carried out in 10 mM BTP pH 6.5, 142 mM […], 1 mM CaCl2, 1 mM EDTA, 1 mM DTT, 0.035 mM Zwittergent 3–16. Human cathepsin K assays were carried out in 100 mM sodium acetate; pH 5.5 containing 20 mM L-cysteine and 1 mM EDTA (Bossard, M. J., et. al., J. Biol. Chem., […], 12517–12524, 1996). […] The final enzyme concentrations used in the assays were 0.5 nM bovine cathepsin S, 1 nM cathepsin L, 0.1 nM cathepsin B, 0.25 nM Cathepsin K; 1 nM cathepsin X and 10 nM cathepsin H. For the inhibition assays, the substrates used for cathepsin S, cathepsin L, cathepsin B, cathepsin K and cathepsin H were boc-Val-Leu-Lys-AMC (KM^app≈30 μM, Ac-Phe-Arg-AMC (KMaPP 20 EM), Z-Phe-Arg-AMC (KM^app≈40 μM), Z-Leu-Arg-AMC (KM^app≈2 μM); Bz-Phe-Val-Arg-AMC (KM^app≈150 μM) respectively. In each case the substrate concentration used in each assay was equivalent to the KM^app. The rate of conversion of substrate to product was derived from the slope of the increase in fluorescence monitored continuously over time.
(§3) The apparent inhibition constant (Ki) for each compound was determined on the basis that inhibition was reversible and occurred by a pure-competitive mechanism. The Ki values were calculated, from the dependence of enzyme activity as a function of inhibitor concentration, by direct regression analysis (Prism v 3.02) using Equation 2 (Cornish-Bowden, A., 1995.).
(§4) In situations where the apparent dissociation constant (Ki^app) approached the enzyme concentrations, the Ki^app values were calculated using a quadratic solution in the form described by Equation 3 (Morrison, J. F. Trends Biochem. Sci., 7, 102–105, 1982; Morrison, J. F. Biochim. Biophys. Acta, 185, 269–286, 1969; Stone, S. R. and Hofsteenge, J. Biochemistry, 25, 4622–4628, 1986).

The target of another assay is T2, Bovine Cathepsin S (Bos taurus, UniProt P25326).
T2 construct: purchased CN Biosciences
Briefly: Cathepsin peptidase activity assay, bovine cathepsin S (Ki). As to conditions: pH 6.5, 25±1° C. It counts as biochemical. The procedure:
as §1, §2, §3, §4

The target of the next assay is T3, Human Cathepsin K (Homo sapiens, UniProt P43235).
T3 construct: Dr. Boris Turk (Josef Stefan Institute, Ljubljana, Slovenia)
T3 sequence (P43235 115-329): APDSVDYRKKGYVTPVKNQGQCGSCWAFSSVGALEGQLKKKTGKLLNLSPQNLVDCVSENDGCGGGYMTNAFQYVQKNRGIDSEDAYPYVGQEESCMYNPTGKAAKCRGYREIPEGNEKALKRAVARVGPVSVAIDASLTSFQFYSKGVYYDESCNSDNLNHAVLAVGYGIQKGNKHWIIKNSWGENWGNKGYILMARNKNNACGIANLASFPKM
Briefly: Cathepsin peptidase activity assay, human cathepsin K (Ki). It is filed as biochemical. As to conditions: pH 5.5, 25±1° C. The procedure:
as §1, §2, §3, §4

In a further assay the target is Cruzipain (Trypanosoma cruzi, UniProt P25779). Briefly: Trypanosoma cruzi cruzipain peptidase activity assay (Ki). It is filed as biochemical. As to conditions: wild-type cruzipain from Trypanosoma cruzi Dm28 epimastigotes, pH 6.75, 25±1° C. The procedure:
as §1
Wild-type cruzipain, derived from Trypanosoma cruzi Dm28 epimastigotes, was obtained from Dr. Julio Scharfstein (Instituto de Biofisica Carlos Chagas Filho, Universidade Federal do Rio de Janeiro, R10 de Janeiro, Brazil). Activity assays were carried out in 100 mM sodium phosphate, pH 6.75 containing 1 mM EDTA and 10 mM L-cysteine using 2.5 nM enzyme. Ac-Phe-Arg-AMC (KM^app≈12 μM) and D-Val-Leu-Lys-AMC (KM^app≈4 μM) were used as the substrates. Routinely, Ac-FR-AMC was used at a concentration equivalent to KM^app and D-Val-Leu-Lys-AMC was used at a concentration of 25 μM. The rate of conversion of substrate to product was derived from the slope of the increase in fluorescence monitored continuously over time.
as §3, §4

For assay [1], the system named is Trypanosoma cruzi-infected mammalian cell cultures. As to conditions: added to Trypanosoma cruzi-infected mammalian cell cultures; cited from earlier work.
Assay [2] concerns Trypanosoma cruzi infection. As to conditions: during the acute phase of infection; cited from earlier work.

In general, Ki refers to a measure of affinity in units of concentration, obtained from inhibition or displacement. Low readings indicate higher affinity, high ones lower affinity.

T2 sequence (P25326 115-331): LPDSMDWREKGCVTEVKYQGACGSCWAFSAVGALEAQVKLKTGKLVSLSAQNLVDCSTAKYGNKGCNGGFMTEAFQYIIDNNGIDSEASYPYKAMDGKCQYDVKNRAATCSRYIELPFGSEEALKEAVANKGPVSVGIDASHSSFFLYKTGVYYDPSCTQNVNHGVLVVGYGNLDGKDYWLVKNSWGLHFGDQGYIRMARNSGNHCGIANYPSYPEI
Chain of Cruzipain (P25779 whole entry): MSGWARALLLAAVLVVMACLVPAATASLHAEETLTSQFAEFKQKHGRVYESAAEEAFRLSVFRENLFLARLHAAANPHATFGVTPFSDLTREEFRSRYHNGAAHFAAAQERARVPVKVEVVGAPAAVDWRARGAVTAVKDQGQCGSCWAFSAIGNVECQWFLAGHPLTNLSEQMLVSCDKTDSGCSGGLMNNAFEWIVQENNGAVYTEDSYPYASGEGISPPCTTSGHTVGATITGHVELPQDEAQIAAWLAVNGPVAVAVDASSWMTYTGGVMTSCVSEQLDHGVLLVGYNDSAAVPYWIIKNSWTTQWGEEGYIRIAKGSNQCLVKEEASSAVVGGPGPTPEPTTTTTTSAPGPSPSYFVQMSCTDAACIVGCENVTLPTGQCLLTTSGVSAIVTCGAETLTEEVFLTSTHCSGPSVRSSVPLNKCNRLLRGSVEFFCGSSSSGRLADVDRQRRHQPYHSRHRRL
T1 sequence (P07711 114-333): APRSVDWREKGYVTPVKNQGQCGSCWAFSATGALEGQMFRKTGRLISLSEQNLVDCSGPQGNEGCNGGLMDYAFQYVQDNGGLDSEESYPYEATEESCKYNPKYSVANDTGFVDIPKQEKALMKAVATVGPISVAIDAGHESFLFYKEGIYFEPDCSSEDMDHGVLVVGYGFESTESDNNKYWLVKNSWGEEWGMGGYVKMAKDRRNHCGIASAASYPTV

In the case of `CC(C)CC(C(=O)N[C@H]1C(=O)CO[C@@H]1C)c1cccc(-c2ccccc2)c1` (mixture of isomers) [Example 46, (2R, 3R) 2-Biphenyl-3-yl-4-methyl-pentanoic acid (2-methyl-4-oxo-tetrahydrofuran-3-yl)-amide], the inhibition constant (Ki) at Human Cathepsin L was over 5 µM; at Bovine Cathepsin S it was over 20 µM; on Human Cathepsin K, under 1 µM; at Cruzipain, over 10 µM.
In the same order, the values of `C[C@H]1OCC(=O)[C@H]1NC(=O)[C@H](Cc1ccccc1)OCc1cccc2ccccc12` (racemic) [Example 49] are under 10 µM, over 100 µM, over 100 µM and over 100 µM.
Consider `C[C@@H]1OCC(=O)[C@H]1NC(=O)[C@H](CC1CCCCC1)SCc1ccco1` [Example 4, (2S, 3S) 3-Cyclohexyl-2-(furan-2-ylmethylsulfanyl)-N-(2-methyl-4-oxo-tetrahydrofuran-3-yl)-propionamide], for which the Ki at Human Cathepsin L is over 100 µM; at Bovine Cathepsin S, under 10 µM; on Human Cathepsin K, over 100 µM; on Cruzipain it was over 100 µM.
In the case of `CC(C)C[C@H](CC(=O)n1ccc(-c2ccccc2)c1)C(=O)N[C@@H]1C(=O)CO[C@@H]1C` [Example 22, (2R, 3S) 4-Methyl-2-[2-oxo-2-(3-phenyl-pyrrol-1-yl)-ethyl]-pentanoic acid (2-methyl-4-oxo-tetrahydrofuran-3-yl)-amide], the inhibitory constant (Ki) on Human Cathepsin L was over 100 µM; at Bovine Cathepsin S, over 50 µM; on Human Cathepsin K, over 5 µM; on Cruzipain, under 5 µM.
As to `CC(NC(=O)C(Cc1ccccc1)NC(=O)OCc1ccccc1)C(=O)CF` (stereo not drawn) [Z-Phe-Ala-FMK], the “effect on replication and differentiation of the parasite” value in assay [1] was “blocked replication and differentiation of the parasite”.
`O=C(Cn1ccnc1[N+](=O)[O-])NCc1ccccc1` [benznidazole]: the cure in assay [2] is about 60%.
